Tests used:
FAP protein = target: T1, FAP protein (Homo sapiens, UniProt Q12884); assay: Biacore test of ligand binding to FAP protein; details: FAP protein on SA chip, 15° C., 1:1 binding model
T1 construct: purchased Sinobiological
T1 sequence (Q12884 1-760): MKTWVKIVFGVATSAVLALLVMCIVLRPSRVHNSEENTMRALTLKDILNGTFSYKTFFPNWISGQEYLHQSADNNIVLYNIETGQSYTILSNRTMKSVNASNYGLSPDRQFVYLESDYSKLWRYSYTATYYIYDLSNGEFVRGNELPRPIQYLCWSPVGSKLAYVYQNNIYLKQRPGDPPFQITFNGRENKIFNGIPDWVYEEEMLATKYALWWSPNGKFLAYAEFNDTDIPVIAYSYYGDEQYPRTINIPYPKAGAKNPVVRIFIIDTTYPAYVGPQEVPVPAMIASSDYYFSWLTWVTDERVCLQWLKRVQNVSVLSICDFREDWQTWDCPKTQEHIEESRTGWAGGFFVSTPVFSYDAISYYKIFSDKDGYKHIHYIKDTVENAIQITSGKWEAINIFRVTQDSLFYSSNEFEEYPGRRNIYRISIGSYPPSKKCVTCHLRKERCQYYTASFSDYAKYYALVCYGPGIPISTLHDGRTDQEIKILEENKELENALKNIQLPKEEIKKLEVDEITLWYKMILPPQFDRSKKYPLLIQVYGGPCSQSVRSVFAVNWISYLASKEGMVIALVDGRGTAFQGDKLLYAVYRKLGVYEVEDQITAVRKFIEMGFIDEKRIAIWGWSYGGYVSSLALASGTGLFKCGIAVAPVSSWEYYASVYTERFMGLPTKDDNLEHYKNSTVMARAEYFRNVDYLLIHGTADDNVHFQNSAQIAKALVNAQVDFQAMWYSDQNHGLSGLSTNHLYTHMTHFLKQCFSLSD
Experimental: The Biacore 8K (Cytiva) instrument was used to detect ligand binding of the FAP protein (Sinobiological). The FAP protein was captured on the SA chip. Before ligand immobilization (flow paths 1 and 2, flow rate of 10 μL/min), the FAP protein (10 μg/mL, flow rate of 5 μL/min, injection time of 600 s) was immobilized on flow path 2 using running buffer, and the sensor surface was conditioned with three consecutive injections of 1 M NaCl in 50 mM NaOH. After each ligand injection, additional washing was carried out with isopropanol in 1 M NaCl and 50 mM NaOH (flow paths 1 and 2, flow rate of 10 μL/min, injection time of 60 s).
The test compounds were dissolved in 100% dimethyl sulfoxide and diluted to 10 mM, then further diluted in the assay buffer (PBS, pH 7.4, 1 mM TCEP ([…]), 0.05% P20, 2% dimethyl sulfoxide) to appropriate maximum concentrations. The analyte was run under the following conditions: analysis temperature=15° C., analysis step=all set to LMW kinetics; cycle type=single cycle (90 s contact time, 1800 s dissociation time, 30 μL/min flow rate, flow channels 1, 2); flow channel detection=2-1). Data evaluation was performed using Biacore Insight Evaluation Software, and the data were fitted to a 1:1 binding model.
The Biacore results are shown in Table 1: pKD=−Log KD, where KD is the binding affinity of the compound to the FAP protein as measured by Biacore. The binding affinity is expressed by KD (M)=Kd(1/s)/Ka(1/Ms). Where A: pKD>8, B: 7<pKD<8, C: 6<pKD<7, D: pKD<6.

[1] = tested on: HT1080 cell line with high FAP expression; assay: Therapeutic experiment of ^177Lu-labeled compounds in tumor-bearing mice; type: in vivo, Balb/c Nude mice
Experimental: Balb/c Nude tumor-bearing mice (supplier: Shanghai Alamo Pharmaceutical Technology Co., Ltd., HT1080 cell line with high FAP expression) aged approximately 6-8 weeks were randomly assigned to 13 experimental groups based on tumor volume, with 5 mice per group. Animal body weight and tumor size were measured, and administration was initiated on the grouping day starting with Group 1 (control group: normal saline). General health and appearance were observed daily after the start of the experiment. Animal body weight and tumor size were measured before each sample collection time point. Any abnormal observations detected during the entire study period were required to be recorded in the raw data.
The synthesized compounds were labeled with ^177Lu and subsequently utilized in the therapeutic assay on mouse tumor models. […] Furthermore, no significant changes in mouse body weight (FIG. 8) were observed throughout the experimental period.
• TGI^TV: Relative tumor inhibition rate (TGI^TV): TGI^TV (%)=[1−(Ti−T0)/(Vi−V0)]×100%; • (Ti: average tumor volume of the treatment group on day i of administration, TO: average tumor volume of the treatment group on day 0 of administration; Vi: average tumor volume of the solvent control group on day i of administration, V0: average tumor volume of the solvent control group on day 0 of administration) • T/C: T/C % is one of the most commonly used indicators for tumor response to treatment: T/C %=T/C*100%; • (T represents the average tumor volume of the treatment group at a specific time point; C represents the average tumor volume of the control group at a specific time point.)
The differences between the treatment groups (tumor volumes of the second, third, fourth, and fifth groups) and the control group (tumor volume of the first group) and between the tumor volumes of the first, third, fourth, and fifth groups and the tumor volume of the second group were analyzed using the two-way ANOVA Fisher's LSD test method. P-values less than 0.05 were considered statistically significant. Both statistical significance and biological significance were taken into account during the result analysis.

SMILES | Kd (FAP protein) [nM] | other results
C[C@@H](NC(=O)c1cnc2c(c1)CCN(C(=O)CCC(=O)NCCNC(=O)CCC(C(=O)O)N1CCN(CC(=O)O)CCN(CC(=O)O)CCN(CC(=O)O)CC1)C2)C(=O)N1CC(F)(F)C[C@H]1C#N (stereo partly drawn) [JHM1, 2,2′,2″-(10-(1-carboxy-4-((2-(4-(3-(((R)-1-((S)-2-cyano-4,4-difluoropyrrolidin-1-yl)-1-oxopropan-2-yl)carbamoyl)-5,8-dihydro-1,7-naphthyridin-7 (6H)-yl)-4-oxobutanamido)ethyl)amino)-4-oxobutyl)-1,4,7,10-tetraazacyclododecane-1,4,7-triyl)triacetic acid] | 100 to 1000 | –
N#C[C@@H]1CC(F)(F)CN1C(=O)CNC(=O)c1cccc(C2CCN(C(=O)CCC(=O)NCC(=O)N3CN(C(=O)CNC(=O)CCC(=O)N4CCC(c5cccc(C(=O)NCC(=O)N6CC(F)(F)C[C@H]6C#N)c5)CC4)CN(C(=O)CNC(=O)CN4CCN(CC(=O)O)CCN(CC(=O)O)CCN(CC(=O)O)CC4)C3)CC2)c1 [JHDB7] | 10 to 100 | –
N#C[C@@H]1CC(F)(F)CN1C(=O)CNC(=O)c1cc2c(s1)CCN(C(=O)CCC(=O)NCCNC(=O)CCNC(=O)CN1CCN(CC(=O)O)CCN(CC(=O)O)CCN(CC(=O)O)CC1)C2 [JHH11] | < 10 | –
N#C[C@@H]1CC(F)(F)CN1C(=O)CNC(=O)c1cc2c(s1)CCN(C(=O)CCC(=O)NCCNC(=O)CCC(C(=O)O)N1CCN(CC(=O)O)CCN(CC(=O)O)CCN(CC(=O)O)CC1)C2 (stereo partly shown) [JHH3] | < 10 | –
N#C[C@@H]1CC(F)(F)CN1C(=O)CNC(=O)c1ccc2c(c1)CCN(C(=O)CCC(=O)NCC(=O)N1CN(C(=O)CNC(=O)CCC(=O)N3CCc4cc(C(=O)NCC(=O)N5CC(F)(F)C[C@H]5C#N)ccc4C3)CN(C(=O)CNC(=O)CN3CCN(CC(=O)O)CCN(CC(=O)O)CCN(CC(=O)O)CC3)C1)C2 [JHDB6] | < 10 | –
C[C@@H](NC(=O)c1ccc(CNC(=O)CCC(=O)NCCCC[C@H](NC(=O)CCC(=O)NCc2ccc(C(=O)N[C@H](C)C(=O)N3CCC[C@H]3B(O)O)cc2)C(=O)NCCOCCNC(=O)CN2CCN(CC(=O)O)CCN(CC(=O)O)CCN(CC(=O)O)CC2)cc1)C(=O)N1CCC[C@H]1B(O)O [JHDB2] | 100 to 1000 | –
N#C[C@@H]1CC(F)(F)CN1C(=O)CNC(=O)c1ccc2c(c1)CCCN2C(=O)CCC(=O)NCCNC(=O)CCNC(=O)CN1CCN(CC(=O)O)CCN(CC(=O)O)CCN(CC(=O)O)CC1 [JHH13] | 10 to 100 | –
N#C[C@@H]1CC(F)(F)CN1C(=O)CNC(=O)c1ccnc2c(NC(=O)CCC(=O)NCCNC(=O)CCC(C(=O)O)N3CCN(CC(=O)O)CCN(CC(=O)O)CCN(CC(=O)O)CC3)cccc12.[177Lu] (stereo partly shown) [^177Lu-OncoFAP-DOTAGA, reference compound] | – | T/C ([1]; 0.8 mCi, Day 14): 32.33%; Tumor volume (mm^3) Group administration Day 14 ([1]; 0.8 mCi, Day 14): 844.66 ± 41.70 mm^3; TGI^TV (%) ([1]; 0.8 mCi, Day 14, relative tumor inhibition rate): 69.90%; Tumor volume (mm^3) Before administration ([1]; baseline, 0.8 mCi group): 137.00 ± 12.07 mm^3
N#C[C@@H]1CC(F)(F)CN1C(=O)CNC(=O)c1ccc2c(n1)CCN(C(=O)CCC(=O)NCCNC(=O)CCC(C(=O)O)N1CCN(CC(=O)O)CCN(CC(=O)O)CCN(CC(=O)O)CC1)C2 (stereo partly shown) [JHH2] | 10 to 100 | –
N#C[C@@H]1CC(F)(F)CN1C(=O)CNC(=O)c1ccc2c(c1)CCN(C(=O)CCC(=O)NCCNC(=O)CCNC(=O)CN1CCN(CC(=O)O)CCN(CC(=O)O)CCN(CC(=O)O)CC1)C2 [JHH12] | < 10 | –

Reference: US20260226049A1, “NITROGEN-CONTAINING HETEROCYCLIC COMPOUND, PREPARATION METHOD THEREFOR, AND USE THEREOF” (BIVISION PHARMACEUTICALS, INC, priority 2023, published 2026)
